Results taken from patent US5656289A, “Pharmaceutical formulations that have a biologically active hydrophilic phase and a chylomicra-containing hydrophobic phase” (priority 1988, dated 1997).
“And” between values parts separate entries of the source, which are not always exact repeats. Equal entries are not always repeated.

Columns and labels:
diabetics [1] = assay: Biological Example B: blood sugar in diabetics and one healthy volunteer after oral Example 1 liquid microemulsion, Regular Insulin or Diabenase; settings: for response of case numbers 1 and 8 (in words): 500 mg tablets per os / 20 units s.c.
Protocol: An appropriate amount of the microemulsion is given in a liquid form per os together with 10 ml of MCT (MCT is a trade mark for a medium chained triglyceride solution by Mead-Johnson & Co. Evansville, Ind., U.S.A.). […] Each ml of the insulin-containing formulation contains approximately 5 units of bovine insulin.
Twelve diabetics (9 IDDM and 3 NIDDM) and one healthy volunteer participate in the study. […] Each subject is given one unit of insulin per kg body weight in the form described above per os.

diabetics [2] = assay: Biological Example A: blood sugar in diabetics and one healthy volunteer after oral Example 5 capsules or s.c. Regular Insulin; assay type: in vivo, human
[3] = Biological Example B: serum insulin after oral Example 1 emulsion or s.c. Regular Insulin; assay type: in vivo, human
Description: The results are as follows:

[4] = Biological Example A: serum insulin after oral Example 5 capsules or s.c. Regular Insulin (radioimmunoassay); assay type: in vivo, human
Protocol: A total of 17 diabetics (8 Insulin-Dependent and 9 Non-Insulin-Dependent diabetics) and one healthy volunteer are fasted overnight. […] Each capsule contains approximately 10 U of bovine insulin and each subject is given, orally, a dose equivalent to approximately one unit per kg body weight, with about 250 ml of water. Blood sugar levels are measured on blood samples obtained by pricking the finger-tip using a HAEMOGLUKOTEST set 20-800R and a REFLOLUX apparatus (Boehringer Mannheim GmbH, West Germany). In a few cases, serum insulin levels are measured using a radioimmunoassay method. For the serum insulin analyses, the serum samples are decanted into TRASYLOL-containing test tubes and stored at -20° to -35° C. until analysed. (TRASYLOL is a trade mark of Bayer for aprotinin proteinase inhibitor.)

[5] = in vivo; cited from earlier work
[6] = 15 Units s.c., case 12 IDDM, 0 h (baseline)
[7] = 15 Units s.c., case 12 IDDM, 1 h
[8] = 15 Units s.c., case 12 IDDM, 3 h
[9] = 15 Units s.c., case 12 IDDM, 4 h
[10] = 20 Units s.c., case 11 IDDM, 0.5 h
[11] = 20 Units s.c., case 11 IDDM, 3 h
[12] = 20 Units s.c., case 11 IDDM, 4 h
[13] = 15 Units s.c., case 18 IDDM, 0 h (baseline)
[14] = 15 Units s.c., case 18 IDDM, 1.0 h
[15] = 15 Units s.c., case 18 IDDM, 2.0 h

CCCNC(=O)NS(=O)(=O)c1ccc(Cl)cc1 [Diabenase]
Blood Sugar (diabetics [1]; 500 mg per os, case 1 NIDDM, 0 h (baseline)): 186 mg/dL
Blood Sugar (diabetics [1]; 500 mg per os, case 8 NIDDM, 1 h): 222 mg/dL
Blood Sugar (diabetics [1]; 500 mg per os, case 8 NIDDM, 2 h): 205 mg/dL
Blood Sugar (diabetics [1]; 500 mg per os, cases 1 and 8 NIDDM, 3 h): 164 mg/dL and 174 mg/dL
response of case numbers 1 and 8 (in words) (diabetics [1]): poor responders

Regular Insulin: Regular Insulin (Green Cross Co. of Seoul, Korea), subcutaneously injected
response of case numbers 1 and 8 (in words) (diabetics [1]): poor responders
Blood Sugar (Table 6) (diabetics [1]; [6]): 188 mg/dL
Blood Sugar (Table 6) (diabetics [1]; [7]): 181 mg/dL
Blood Sugar (Table 6) (diabetics [1]; [8]): 160 mg/dL
Blood Sugar (Table 6) (diabetics [1]; [9]): 139 mg/dL
Blood Sugar (diabetics [1]; 15 Units, case 1 NIDDM, 0 h (baseline)): 201 mg/dL
Blood Sugar (diabetics [1]; 15 Units, case 1 NIDDM, 1 h): 198 mg/dL
Blood Sugar (diabetics [1]; 15 Units, case 1 NIDDM, 4 h): 185 mg/dL
Blood Sugar (Table 6) (diabetics [1]; 20 Units s.c., case 11 IDDM, 0 h (baseline)): 308 mg/dL
Blood Sugar (Table 6) (diabetics [1]; [10]): 181 mg/dL
Blood Sugar (Table 6) (diabetics [1]; [11]): 87 mg/dL
Blood Sugar (Table 6) (diabetics [1]; [12]): 115 mg/dL
Blood Sugar (diabetics [1]; 20 Units, case 8 NIDDM, 3 h): 194 mg/dL
Blood Sugar (diabetics [1]; 20 Units, case 8 NIDDM, 4 h): 176 mg/dL
Blood Sugar (diabetics [1]; 20 Units, cases 6 and 8, 0 h (baseline)): 151 mg/dL and 218 mg/dL
Blood Sugar (diabetics [1]; 20 Units, cases 6 and 8, 2 h): 124 mg/dL and 200 mg/dL
response to subcutaneously injected insulin (in words) (diabetics [2]; 5 to 20 units s.c., case nos. 2, 5, 6, 10, 14): respond poorly
Blood Sugar (diabetics [2]; 5 units s.c., case 6 NIDDM, 0 h (baseline)): 259 mg/dL
Blood Sugar (diabetics [2]; 5 units s.c., case 6 NIDDM, 2 h): 376 mg/dL
Blood Sugar (diabetics [2]; 5 units s.c., case 6 NIDDM, 3 h): 298 mg/dL
Blood Sugar (Table 3) (diabetics [2]; [13]): 171 mg/dL
Blood Sugar (Table 3) (diabetics [2]; [14]): 152 mg/dL
Blood Sugar (Table 3) (diabetics [2]; [15]): 122 mg/dL
Blood Sugar (Table 3) (diabetics [2]; 15 Units s.c., case 18 IDDM, 3.0 h): 207 mg/dL
Blood Sugar (Table 3) (diabetics [2]; 15 Units s.c., case 18 IDDM, […]): 131 mg/dL
Blood Sugar (diabetics [2]; 15 units s.c., case 5 IDDM, 0 h (baseline)): 171 mg/dL
Blood Sugar (diabetics [2]; 15 units s.c., case 5 IDDM, 1 h): 196 mg/dL
Blood Sugar (diabetics [2]; 15 units s.c., case 5 IDDM, 2 h): 161 mg/dL
Blood Sugar (diabetics [2]; 15 units s.c., case 5 IDDM, 3 h): 170 mg/dL
Blood Sugar (Table 3) (diabetics [2]; 20 Units s.c., case 10 NIDDM, 0 h (baseline)): 157 mg/dL
Blood Sugar (Table 3) (diabetics [2]; 20 Units s.c., case 10 NIDDM, 0.5 h): 102 mg/dL
Blood Sugar (Table 3) (diabetics [2]; 20 Units s.c., case 10 NIDDM, 3.0 h): 106 mg/dL
Blood Sugar (Table 3) (diabetics [2]; 20 Units s.c., case 10 NIDDM, […]): 77 mg/dL
Blood Sugar (diabetics [2]; 20 units s.c., poor responders, 0 h (baseline)): 216 mg/dL and 330 mg/dL and 312 mg/dL
Blood Sugar (diabetics [2]; 20 units s.c., poor responders, 1 h): 196 mg/dL and 162 mg/dL
Blood Sugar (diabetics [2]; 20 units s.c., poor responders, 2 h): 186 mg/dL and 180 mg/dL
Blood Sugar (diabetics [2]; 20 units s.c., poor responders, 3 h): 180 mg/dL
Serum Insulin [3, 6]: 30 micro-Units/ml
Serum Insulin [3, 7]: 47 micro-Units/ml
Serum Insulin [3, 8]: 112 micro-Units/ml
Serum Insulin [3, 9]: 115 micro-Units/ml
Serum Insulin [3, 10]: 159 micro-Units/ml
Serum Insulin [3, 11]: 78 micro-Units/ml
Serum Insulin [3, 12]: 45 micro-Units/ml
Serum Insulin [4, 13]: 10 micro-U/ml
Serum Insulin [4, 14]: 57 micro-U/ml
Serum Insulin [4, 15]: 184 micro-U/ml
Serum Insulin ([4]; 15 Units s.c., case 18 IDDM, 4.0 h): 64 micro-U/ml
Serum Insulin ([4]; 20 Units s.c., case 10 NIDDM, 1.0 h): 19 micro-U/ml
Serum Insulin ([4]; 20 Units s.c., case 10 NIDDM, 2.0 h): 11 micro-U/ml

Sorbitan monolaurate
LD50 [5]: 41000 mg/kg

Sorbitan monooleate
LD50 [5]: > 40000 mg/kg

Sorbitan monopalmitate
LD50 [5]: > 16000 mg/kg

Sorbitan monostearate
LD50 [5]: 31000 mg/kg

Sorbitan trioleate
LD50 [5]: > 40000 mg/kg

Sorbitan tristearate
LD50 [5]: > 16000 mg/kg
